Test results published in patent US20240246908A1 (ORION CORPORATION, priority 2021, published 2024).

Tested on: YAP-TEAD
Test: TEAD inhibition, Hippo Pathway TEAD Reporter MCF-7 luciferase assay
Type: cell-based
Settings: Homo sapiens, MCF7, 24 h, Hippo Pathway TEAD Reporter MCF-7 cells, luciferase activity after 24 h; read-out: IC50 of the test compounds on YAP-TEAD inhibition (Group)
Procedure: TEAD inhibition was assayed using Hippo Pathway TEAD Reporter—MCF-7 cell line (BPS Bioscience, Catalog #: 60618) which contains firefly luciferase gene under the control of TEAD responsive elements. In the cell line, YAP1 remains in the nucleus inducing constitutive expression of luciferase reporter. Amount of expressed luciferase was detected using ONE-Glo Luciferase Assay System (Promega) and measuring plates with Enspire Multimode Plate Reader (PerkinElmer).
Hippo Pathway TEAD Reporter—MCF-7 cells were plated on white/clear Poly-D-Lysine coated 384 plates (Corning #356660) at the density of 8500 cells/well. Next day test compounds (11 concentrations with 4 replicates) and DMSO control (0.1%) were added to the plate. After 24 h cells were lysed and luciferase activity was measured. The half maximal inhibitory concentration (IC50) of the test compounds on YAP-TEAD inhibition was determined.

Row | SMILES | IC50
1 | O=C1CCC(C(=O)Nc2cc(Oc3ccc(C(F)(F)F)cc3)cc3c2OCCO3)N1 (stereo not drawn) [Compound 66, 5-Oxo-N-(7-(4-(trifluoromethyl)phenoxy)-2,3-dihydrobenzo[b][1,4]dioxin-5-yl)pyrrolidine-2-carboxamide] | < 50 nM
2 | CN1C(=O)CCC1C(=O)Nc1cc(Oc2ccc(C(F)(F)F)cc2)cc2c1OCCO2 (stereo not drawn) [Compound 67, 1-Methyl-5-oxo-N-(7-(4-(trifluoromethyl)phenoxy)-2,3-dihydrobenzo[b][1,4]-dioxin-5-yl)pyrrolidine-2-carboxamide] | < 50 nM
3 | CCN1C(=O)CCC1C(=O)Nc1cc(Oc2ccc(C(F)(F)F)cc2)ccc1OC (stereo not drawn) [Compound 68, 1-Ethyl-N-(2-methoxy-5-(4-(trifluoromethyl)phenoxy)phenyl)-5-oxopyrrolidine-2-carboxamide] | < 50 nM
4 | COc1ccc(Oc2ccc(C(F)(F)F)cc2)cc1NC(=O)[C@H]1CCC(=O)N1C [Compound 69, (R)—N-(2-Methoxy-5-(4-(trifluoromethyl)phenoxy)phenyl)-1-methyl-5-oxo-pyrrolidine-2-carboxamide] | < 50 nM
5 | COc1ccc(Oc2ccc(C(F)(F)F)cc2)cc1NC(=O)[C@@H]1CCC(=O)N1C [Compound 70, (S)—N-(2-Methoxy-5-(4-(trifluoromethyl)phenoxy)phenyl)-1-methyl-5-oxo-pyrrolidine-2-carboxamide] | < 50 nM
6 | COc1ccc(Oc2ccc(C(F)(F)F)cc2)cc1NC(=O)C1CS(=O)(=O)N1C (stereo not drawn) [Compound 71, N-(2-Methoxy-5-(4-(trifluoromethyl)phenoxy)phenyl)-2-methyl-1,2-thiazeti-dine-3-carboxamide 1,1-dioxide] | 50 to 300 nM
7 | COc1ccc(Oc2cccc(C(F)(F)F)c2)cc1NC(=O)C1CS(=O)(=O)N1C (stereo not drawn) [Compound 72, N-(2-Methoxy-5-(3-(trifluoromethyl)phenoxy)phenyl)-2-methyl-1,2-thiaze-tidine-3-carboxamide 1,1-dioxide] | 301 to 2000 nM
8 | COc1cc(F)c(COc2cccc(F)c2)cc1NC(=O)C1CCC(=O)N1 (stereo not drawn) [Compound 73, N-(4-Fluoro-5-((3-fluorophenoxy)methyl)-2-methoxyphenyl)-5-oxopyrrolidine-2-carboxamide] | 50 to 300 nM
9 | COc1ccc(Nc2ccc(C(F)(F)F)cc2)cc1NC(=O)C1CCC(=O)N1C (stereo not drawn) [Compound 74, N-(2-Methoxy-5-((4-(trifluoromethyl)phenyl)amino)phenyl)-1-methyl-5-oxo-pyrrolidine-2-carboxamide] | 50 to 300 nM
10 | CN1C(=O)CCC1C(=O)Nc1cc(Oc2ccc(C(F)(F)F)cc2)ccc1F (stereo not drawn) [Compound 75, N-(2-Fluoro-5-(4-(trifluoromethyl)phenoxy)phenyl)-1-methyl-5-oxopyrrolidine-2-carboxamide] | < 50 nM
11 | O=C1CCC(C(=O)Nc2cc(Oc3ccc(C(F)(F)F)cc3)ccc2F)N1 (stereo not drawn) [Compound 76, N-(2-Fluoro-5-(4-(trifluoromethyl)phenoxy)phenyl)-5-oxopyrrolidine-2-carboxamide] | < 50 nM
12 | COc1ccc(Oc2cc(F)cc(F)c2)cc1NC(=O)C1CCC(=O)N1C(C)=O (stereo not drawn) [Compound 77, 1-Acetyl-N-(5-(3,5-difluorophenoxy)-2-methoxyphenyl)-5-oxopyrrolidine-2-carboxamide] | 50 to 300 nM
13 | COc1ccc(Oc2cc(F)cc(F)c2)cc1NC(=O)C1CCC(=O)N1C (stereo not drawn) [Compound 78, N-(5-(3,5-Difluorophenoxy)-2-methoxyphenyl)-1-methyl-5-oxopyrrolidine-2-carboxamide] | 50 to 300 nM
14 | COc1ccc(Oc2cc(F)ccc2F)cc1NC(=O)C1CCC(=O)N1 (stereo not drawn) [Compound 79, N-(5-(2,5-Difluorophenoxy)-2-methoxyphenyl)-5-oxopyrrolidine-2-carboxamide] | 301 to 2000 nM
15 | O=C1CCC2(C(=O)Nc3cc(Oc4ccc(C(F)(F)F)cc4)cc4c3OCCO4)CCCN12 (stereo not drawn) [Compound 80, 3-Oxo-N-(7-(4-(trifluoromethyl)phenoxy)-2,3-dihydrobenzo[b][1,4]dioxin-5-yl)tetrahydro-1H-pyrrolizine-7a(5H)-carboxamide] | 50 to 300 nM
16 | COc1ccc(Oc2ccc(C(F)(F)F)cc2)cc1NC(=O)C1CCC(=O)N1C(C)C (stereo not drawn) [Compound 81, 1-Isopropyl-N-(2-methoxy-5-(4-(trifluoromethyl)phenoxy)phenyl)-5-oxo-pyrrolidine-2-carboxamide] | < 50 nM
17 | COc1ccc(Oc2ccc(F)c(F)c2)cc1NC(=O)C1CCC(=O)N1C(C)C (stereo not drawn) [Compound 82, N-(5-(3,4-Difluorophenoxy)-2-methoxyphenyl)-1-isopropyl-5-oxopyrrolidine-2-carboxamide] | 50 to 300 nM
18 | CN1C(=O)CCC1C(=O)Nc1cc(Oc2ccc(C(F)(F)F)cc2)ccc1-c1nnco1 (stereo not drawn) [Compound 83, N-(2-(1,3,4-Oxadiazol-2-yl)-5-(4-(trifluoromethyl)phenoxy)phenyl)-1-methyl-5-oxopyrrolidine-2-carboxamide] | 50 to 300 nM

Row | SMILES | IC50
19 | CN1C(=O)CCC1C(=O)Nc1cc(Oc2cccc(C(F)(F)F)c2)ccc1-c1nnco1 (stereo not drawn) [Compound 84, N-(2-(1,3,4-Oxadiazol-2-yl)-5-(3-(trifluoromethyl)phenoxy)phenyl)-1-methyl-5-oxopyrrolidine-2-carboxamide] | 301 to 2000 nM
20 | CN1C(=O)CCC1C(=O)Nc1cc(Oc2ccc(F)c(F)c2)ccc1-c1ccn(C)n1 (stereo not drawn) [Compound 85, N-(5-(3,4-Difluorophenoxy)-2-(1-methyl-1H-pyrazol-3-yl)phenyl)-1-methyl-5-oxopyrrolidine-2-carboxamide] | 301 to 2000 nM
21 | CN1C(=O)CCC1C(=O)Nc1cc(Oc2ccc(F)c(F)c2)ccc1-c1ccnn1C (stereo not drawn) [Compound 86, N-(5-(3,4-Difluorophenoxy)-2-(1-methyl-1H-pyrazol-5-yl)phenyl)-1-methyl-5-oxopyrrolidine-2-carboxamide] | 50 to 300 nM
22 | COc1ccc(Oc2ccc(C(F)(F)F)cc2)cc1NC(=O)C1COC(=O)N1C (stereo not drawn) [Compound 87, N-(2-Methoxy-5-(4-(trifluoromethyl)phenoxy)phenyl)-3-methyl-2-oxo-oxazolidine-4-carboxamide] | < 50 nM
23 | COc1ccc(Oc2ccc(F)c(F)c2)cc1NC(=O)C1COC(=O)N1C (stereo not drawn) [Compound 88, N-(5-(3,4-Difluorophenoxy)-2-methoxyphenyl)-3-methyl-2-oxooxazolidine-4-carboxamide] | < 50 nM
24 | COc1ccc(COc2ccc(F)c(F)c2)cc1NC(=O)C1COC(=O)N1C (stereo not drawn) [Compound 89, N-(5-((3,4-Difluorophenoxy)methyl)-2-methoxyphenyl)-3-methyl-2-oxo-oxazolidine-4-carboxamide] | 50 to 300 nM
25 | COc1ccc(COc2cccc(F)c2)cc1NC(=O)C1COC(=O)N1C (stereo not drawn) [Compound 90, N-(5-((3-Fluorophenoxy)methyl)-2-methoxyphenyl)-3-methyl-2-oxo-oxazolidine-4-carboxamide] | 50 to 300 nM
26 | COc1ccc(Oc2ccc(C(F)(F)F)cc2)cc1NC(=O)C1CCC(=S)N1C (stereo not drawn) [Compound 91, N-(2-Methoxy-5-(4-(trifluoromethyl)phenoxy)phenyl)-1-methyl-5-thioxo-pyrrolidine-2-carboxamide] | < 50 nM
27 | COc1ccc(Oc2ccc(C(F)(F)F)cc2)cc1NC(=O)C1CCC(=S)N1 (stereo not drawn) [Compound 92, N-(2-Methoxy-5-(4-(trifluoromethyl)phenoxy)phenyl)-5-thioxopyrrolidine-2-carboxamide] | < 50 nM
28 | COc1ccc(Oc2ccc(F)c(F)c2)cc1NC(=O)[C@H]1CCC(=O)N1C [Compound 93, (R)—N-(5-(3,4-Difluorophenoxy)-2-methoxyphenyl)-1-methyl-5-oxopyrrolidine-2-carboxamide] | < 50 nM
29 | COc1ccc(Oc2ccc(F)c(F)c2)cc1NC(=O)[C@@H]1CCC(=O)N1C [Compound 94, (S)—N-(5-(3,4-Difluorophenoxy)-2-methoxyphenyl)-1-methyl-5-oxopyrrolidine-2-carboxamide] | 50 to 300 nM
30 | COc1ccc(COc2ccc(F)c(F)c2)cc1NC(=O)C1CCC(=O)N1C (stereo not drawn) [Compound 95, N-(5-((3,4-Difluorophenoxy)methyl)-2-methoxyphenyl)-1-methyl-5-oxo-pyrrolidine-2-carboxamide] | 50 to 300 nM
31 | COc1ccc(OC2CC3CCC2C3)cc1NC(=O)C1CCC(=O)N1C (stereo not drawn) [Compound 96, N-(5-(Bicyclo[2.2.1]heptan-2-yloxy)-2-methoxyphenyl)-1-methyl-5-oxo-pyrrolidine-2-carboxamide] | 50 to 300 nM
32 | CN1C(=O)CC[C@@H]1C(=O)Nc1cc(Oc2ccc(F)c(F)c2)cc2c1OCCO2 [Compound 97, (R)—N-(7-(3,4-Difluorophenoxy)-2,3-dihydrobenzo[b][1,4]dioxin-5-yl)-1-methyl-5-oxopyrrolidine-2-carboxamide] | < 50 nM
33 | CN1C(=O)CC[C@H]1C(=O)Nc1cc(Oc2ccc(F)c(F)c2)cc2c1OCCO2 [Compound 98, (S)—N-(7-(3,4-Difluorophenoxy)-2,3-dihydrobenzo[b][1,4]dioxin-5-yl)-1-methyl-5-oxopyrrolidine-2-carboxamide] | 50 to 300 nM
34 | CN1C(=O)CC[C@@H]1C(=O)Nc1cc(Oc2ccc(C(F)(F)F)cc2)cc2c1OCC2 [Compound 99, (R)-1-Methyl-5-oxo-N-(5-(4-(trifluoromethyl)phenoxy)-2,3-dihydrobenzofuran-7-yl)pyrrolidine-2-carboxamide] | < 50 nM
35 | CN1C(=O)CC[C@H]1C(=O)Nc1cc(Oc2ccc(F)c(F)c2)cc2c1OCC2 [Compound 100, (S)—N-(5-(3,4-Difluorophenoxy)-2,3-dihydrobenzofuran-7-yl)-1-methyl-5-oxopyrrolidine-2-carboxamide] | < 50 nM
36 | COc1ccc(Oc2ccc(C(F)(F)F)cc2)cc1NC(=O)[C@H]1COC(=O)N1C [Compound 101, (R)—N-(2-Methoxy-5-(4-(trifluoromethyl)phenoxy)phenyl)-3-methyl-2-oxooxazolidine-4-carboxamide] | < 50 nM
